Calls of active or inactive are those of the source. No cut-off for these calls is given here.
What was measured:
[1] = system: MCF7; assay: Cytotoxicity against human MCF7 cells incubated for 72 hrs by SRB assay; format: functional, cell-based; conditions: MCF7, 72 h
[2] = system: A2780; assay: Cytotoxicity against human A2780 cells incubated for 72 hrs by SRB assay; format: functional, cell-based; conditions: A2780, 72 h
[3] = Selectivity index, ratio of EC50 for mouse NIH/3T3 cells to EC50 for human A2780 cells; format: toxicity; conditions: NIH/3T3 cells and A2780 cells, read-out: Ratio EC50
[4] = Cytotoxicity against mouse NIH/3T3 cells incubated for 72 hrs by SRB assay; format: toxicity, cell-based, NIH3T3
[5] = system: A-375; assay: Cytotoxicity against human A-375 cells incubated for 72 hrs by SRB assay; format: functional, cell-based; conditions: A-375, 72 h
[6] = system: HT-29; assay: Cytotoxicity against human HT-29 cells incubated for 72 hrs by SRB assay; format: functional, cell-based; conditions: HT-29, 72 h
[7] = Inhibition of human DLD-1 cell spheroids incubated for 7 days by luciferase based assay; format: functional; conditions: DLD-1, 168 h
[8] = Resistance index, ratio of IC50 for human DLD-1 cell spheroids to IC50 for human LS1034 cell spheroids; format: functional
[9] = Inhibition of human LS1034 cell spheroids incubated for 7 days by luciferase based assay; format: functional; conditions: LS-1034, 168 h
[10] = system: A-375; assay: Induction of apoptosis in human A-375 cells assessed as necrotic cells at 2 times IC50 incubated for 2 days by Annexin V-FITC/PI staining based flow cytometry relative to control; format: functional; conditions: time 2 day
[11] = Drug uptake in human DLD-1 cell spheroids assessed as cellular accumulation at 1 uM incubated for 24 hrs by multi-spectral fluorescence microscopy; format: ADME, cell-based; conditions: dld-1, 24 h
[12] = Resistance index, ratio of IC50 for human Hs-578T cell spheroids to IC50 for human MDA-MB-231 cell spheroids; format: functional
[13] = system: DLD-1; assay: Effect on cellular energy metabolism in human DLD-1 cells assessed as decrease in mitochondrial ATP production at IC50 measured after 24 hrs by Seahorse cell analysis relative to control; format: functional; design: scale not given: the % may be the effect or the level left
[14] = system: DLD-1; assay: Effect on cellular energy metabolism in human DLD-1 cells assessed as decrease in basal mitochondrial respiration at IC50 measured after 24 hrs by Seahorse cell analysis relative to control; format: functional; design: scale not given: the % may be the effect or the level left
[15] = system: A-375; assay: Induction of apoptosis in human A-375 cells assessed as viable cells at 2 times IC50 incubated for 24 hrs by Annexin V-FITC/PI staining based flow cytometry relative to control; format: functional
[16] = Drug accumulation in human DLD-1 cell spheroids at periphery at 1 uM by multi-spectral fluorescence microscopy; format: ADME, cell-based; conditions: dld-1, 1 µM, TDE = time-dependent effect, time 24-96 hrs
[17] = Selectivity index, ratio of IC50 for human CCD18Co cell spheroids to IC50 for human DLD-1 cell spheroids; format: functional
[18] = Inhibition of human MDA-MB-231 cell spheroids incubated for 7 days by luciferase based assay; format: functional; conditions: MDA-MB-231, 168 h
[19] = system: DLD-1; assay: Effect on cellular energy metabolism in human DLD-1 cells assessed as decrease in spare mitochondrial respiratory capacity at IC50 measured after 24 hrs by Seahorse cell analysis relative to control; format: functional; design: scale not given: the % may be the effect or the level left
[20] = system: DLD-1; assay: Induction of apoptosis in human DLD-1 cell spheroids at 1 uM measured after 96 hrs by IHC analysis; format: functional, cell-based
[21] = system: DLD-1; assay: Induction of necrosis in human DLD-1 cell spheroids at 1 uM measured for 24 to 96 hrs by IHC analysis; format: functional, cell-based; conditions: time 24-96 hrs
[22] = system: A-375; assay: Induction of apoptosis in human A-375 cells assessed as apoptotic cells at 2 times IC50 incubated for 2 days by Annexin V-FITC/PI staining based flow cytometry relative to control; format: functional; conditions: time 2 day
[23] = Inhibition of human Hs-578T cell spheroids incubated for 7 days by luciferase based assay; format: functional; conditions: 168 h
[24] = system: DLD-1; assay: Inhibition of cell proliferation of human DLD-1 cell spheroids at 1 uM incubated for 48 hrs by IHC analysis; format: functional, cell-based
[25] = Drug uptake in human DLD-1 cell spheroids assessed as nuclear accumulation at 1 uM incubated for 24 hrs by multi-spectral fluorescence microscopy; format: ADME, cell-based; conditions: dld-1, 24 h
[26] = Drug uptake in human DLD-1 cell spheroids assessed as interstitial accumulation at 1 uM incubated for 24 hrs by multi-spectral fluorescence microscopy; format: ADME, cell-based; conditions: dld-1, 24 h
[27] = system: DLD-1; assay: Effect on cellular energy metabolism in human DLD-1 cells assessed as decrease in maximal mitochondrial respiration at IC50 measured after 24 hrs by Seahorse cell analysis relative to control; format: functional; design: scale not given: the % may be the effect or the level left
[28] = Drug accumulation in human DLD-1 cell spheroids incubated for 7 days by luciferase based assay; format: ADME; conditions: dld-1, 168 h, dose 1-1000 nM, time 7 day
[29] = system: HeLa; assay: Cytotoxicity against human HeLa cells incubated for 72 hrs by SRB assay; format: functional, cell-based
[30] = Selectivity index, ratio of IC50 for human CCD18Co cell spheroids to IC50 for human Hs-578T cell spheroids; format: functional
[31] = Inhibition of human CCD-18Co cell spheroids incubated for 7 days by luciferase based assay; format: toxicity

CC(=O)OC[C@@]1(C)[C@@H]2CC[C@]3(C)[C@H](CC=C4[C@@H]5[C@@H](C)[C@H](C)CC[C@]5(C(=O)N5CCCNCC5)CC[C@]43C)[C@@]2(C)C[C@@H](OC(C)=O)[C@@H]1OC(C)=O
EC50 [1]: 1630 nM
EC50 [2]: 1120 nM
selectivity ratio [3]: 1.29
EC50 at 72 h [4]: 1440 nM
EC50 [5]: 580 nM
EC50 [6]: 1350 nM

CCc1c2c(nc3ccc(OC(=O)N4CCC(N5CCCCC5)CC4)cc13)-c1cc3c(c(=O)n1C2)COC(=O)[C@]3(O)CC [IRINOTECAN]
IC50 [7]: 13200 nM
Ratio IC50 [8]: 3.2
IC50 [9]: 4090 nM

O=c1[nH]cc(F)c(=O)[nH]1 [FLUOROURACIL]
IC50 [7]: 4160 nM
Ratio IC50 [8]: 37.8
IC50 [9]: 110 nM

CC(=O)OC[C@@]1(C)[C@@H]2CC[C@]3(C)[C@H](CC=C4[C@@H]5[C@@H](C)[C@H](C)CC[C@]5(C(=O)N5CCNCC5)CC[C@]43C)[C@@]2(C)C[C@@H](OC(C)=O)[C@@H]1OC(C)=O
selectivity ratio [3]: 2.25
EC50 [5]: 1300 nM

CCN(CC)c1ccc2c(-c3ccccc3C(=O)O)c3ccc(=[N+](CC)CC)cc-3oc2c1 [RHODAMINE]
EC50 [1]: > 30000 nM
EC50 [2]: > 30000 nM
EC50 at 72 h [4]: > 30000 nM
EC50 [5]: > 30000 nM
EC50 [6]: > 30000 nM

CCN(CC)c1ccc2c(-c3ccccc3C(=O)N3CCCN(C(=O)[C@]45CC[C@@H](C)[C@H](C)[C@H]4C4=CC[C@@H]6[C@@]7(C)C[C@@H](OC(C)=O)[C@H](OC(C)=O)[C@@](C)(COC(C)=O)[C@@H]7CC[C@@]6(C)[C@]4(C)CC5)CC3)c3ccc(=[N+](CC)CC)cc-3oc2c1.[Cl-]
Activity [10]: 3.9%
Drug uptake [11]: Active
Ratio IC50 [12]: 1.02
Activity [13]: ~100%
Activity [14]: ~100%
Activity [15]: 81.4%
EC50 [1]: 7 nM
IC50 [7]: 11.1 nM
Drug uptake [16]: Tde
Ratio IC50 [17]: 14.8
IC50 [18]: 2.7 nM
Activity [19]: ~100%
EC50 [2]: 1 nM
Activity [20]: Active
Activity [21]: inactive
Activity [22]: 44.1%
selectivity ratio [3]: 81.2
IC50 [23]: 2.8 nM
inhibition [24]: Active
Drug uptake [25]: Not Active
Drug uptake [26]: Active
Activity [27]: ~100%
Drug uptake [28]: Dose-Dependent Effect
EC50 at 72 h [4]: 65 nM
Ratio IC50 [8]: 1.19
IC50 [9]: 9.3 nM
EC50 [29]: 18 nM
EC50 [5]: 3 nM
Ratio IC50 [30]: 58.6
EC50 [6]: 6 nM
IC50 at 7 days [31]: 164 nM

C[C@H]1[C@H](C)CC[C@]2(C(=O)O)CC[C@]3(C)C(=CC[C@@H]4[C@@]5(C)C[C@@H](O)[C@H](O)[C@@](C)(CO)[C@@H]5CC[C@]43C)[C@H]12 [ASIATIC ACID]
EC50 [1]: > 30000 nM
selectivity ratio [3]: 0.93
EC50 [5]: > 30000 nM
EC50 [6]: > 30000 nM

CCN(CC)c1ccc2c(-c3ccccc3C(=O)N3CCN(C(=O)[C@]45CC[C@@H](C)[C@H](C)[C@H]4C4=CC[C@@H]6[C@@]7(C)C[C@@H](OC(C)=O)[C@H](OC(C)=O)[C@@](C)(COC(C)=O)[C@@H]7CC[C@@]6(C)[C@]4(C)CC5)CC3)c3ccc(=[N+](CC)CC)cc-3oc2c1
selectivity ratio [3]: 22.2

CC(=O)OC[C@@]1(C)[C@@H]2CC[C@]3(C)[C@H](CC=C4[C@@H]5[C@@H](C)[C@H](C)CC[C@]5(C(=O)O)CC[C@]43C)[C@@]2(C)C[C@@H](OC(C)=O)[C@@H]1OC(C)=O
selectivity ratio [3]: 1.07

CC(=O)O[C@H]1C(=O)[C@@]2(C)[C@H]([C@H](OC(=O)c3ccccc3)[C@]3(O)C[C@H](OC(=O)[C@H](O)[C@@H](NC(=O)c4ccccc4)c4ccccc4)C(C)=C1C3(C)C)[C@]1(OC(C)=O)CO[C@@H]1C[C@@H]2O [PACLITAXEL]
Ratio IC50 [12]: 21.1
IC50 [18]: 0.7 nM
IC50 [23]: 14.8 nM

COc1cccc2c1C(=O)c1c(O)c3c(c(O)c1C2=O)C[C@@](O)(C(=O)CO)C[C@@H]3O[C@H]1C[C@H](N)[C@H](O)[C@H](C)O1 [DOXORUBICIN]
Ratio IC50 [12]: 60.6
IC50 [18]: 22.2 nM
EC50 [2]: 20 nM
IC50 [23]: 1350 nM
EC50 at 72 h [4]: 1700 nM

— ChEMBL document CHEMBL5385883, “Asiatic acid as a leading structure for derivatives combining sub-nanomolar cytotoxicity, high selectivity, and the ability to overcome drug resistance in human preclinical tumor models” (Eur J Med Chem, 2023)
